Converted amounts (≈) assume the structure as drawn. Where two headings read alike, the source gives them in different places.
Columns and labels:
[1] = test system: M. suipneumoniae NCTC 10110; experiment: in vitro MIC by serial dilution in Friis modified agarose medium; assay type: cell-based; settings: Mesomycoplasma hyopneumoniae, NCTC10110; Table 3
P. mirabilis 889 = experiment: MIC by serial dilution in nutrient agar with 5% chocolated horse blood; assay type: cell-based; settings: Proteus mirabilis, Table 1, read-out: MIC
[2] = test system: M. suipneumoniae ATCC 25095; experiment: in vitro MIC by serial dilution in Friis modified agarose medium; assay type: cell-based; settings: Mesomycoplasma hyopneumoniae, ATCC25095; Table 3
Bacillus subtilis 6633 = experiment: MIC by serial dilution in nutrient agar with 5% chocolated horse blood; assay type: cell-based; settings: Table 1
Strep. dysgalactiae SPD1 = experiment: MIC by agar dilution, veterinary bacteria; settings: Streptococcus dysgalactiae, SPD1, 24 h
E. coli ESS = experiment: MIC by serial dilution in nutrient agar with 5% chocolated horse blood; assay type: cell-based; settings: Escherichia coli; Table 1
[3] = test system: M. bovigenitalium ATCC 14173; experiment: in vitro MIC by serial dilution in Friis modified agarose medium; assay type: cell-based; settings: Table 3; read-out: MIC
M. suipneumoniae JF 435 = experiment: as above; assay type: cell-based; settings: Mesomycoplasma hyopneumoniae, JF435; Table 3
M. hyosnoviae ATCC 25591 = experiment: as above; assay type: cell-based; settings: Table 3
[4] = Mouse blood levels of Example 1 following oral and subcutaneous administration; assay type: in vivo, albino male mice; settings: read-out: blood conc.; for concentration at 0.5 h: 30 min; for concentration at 1 h: 60 min; for concentration at 2 h: 120 min; for concentration at 4 h: 240 min
Procedure: Mouse blood levels of Example 1 following its oral and subcutaneous administration
Blood levels were assessed in albino male mice (18-22 g CSI). The dose was 50 mg/kg administered in a 10% DMF solution orally and subcutaneously. The mice were killed at intervals up to 4 hours and the blood assayed microbiologically using B. subtilis.

[5] = test system: Strep. suis (group D) SPS11; experiment: MIC by agar dilution, veterinary bacteria; settings: Streptococcus suis, 24 h
[6] = test system: Erysipelothrix rhusiopathiae NCTC 8163; experiment: MIC by agar dilution, veterinary bacteria; settings: NCTC8163, 24 h
[7] = test system: Staph. aureus B4 (pen resis); experiment: MIC by agar dilution, veterinary bacteria; settings: Staphylococcus aureus, 24 h
Strep. pyogenes A 64/848 = experiment: MIC by serial dilution in nutrient agar with 5% chocolated horse blood; assay type: cell-based; settings: Streptococcus pyogenes, A64/848; Table 1
M. bovis NCTC 10131 = experiment: microbe, parasite or virus in culture; assay type: cell-based; settings: NCTC10131
S. typhimurium S18 = experiment: MIC by agar dilution, veterinary bacteria; settings: Salmonella enterica, 24 h
K. aerogenes A = experiment: MIC by serial dilution in nutrient agar with 5% chocolated horse blood; assay type: cell-based; settings: Klebsiella aerogenes; Table 1; read-out: MIC
[8] = test system: Pasteurella multocida 1633; experiment: as above; assay type: cell-based; settings: Table 1

## CC(=O)C=C(C)CC1OCC(CC2OC2C(C)C(C)O)C(O)C1O [Example 1, 1-[3R,4R-Dihydroxy-5S-(2S,3S-epoxy-5S-hydroxy-4S-methylhexyl)-2,3,5,6-tetrahydropyran-2-S-yl]-2-methylpent-2E-en-4-one]
[1]
  MIC: > 10 µg/mL
P. mirabilis 889
  MIC: 50 µg/mL (≈ 146 µM)
[2]
  MIC: 10 µg/mL (≈ 29.2 µM)
Bacillus subtilis 6633
  MIC: 5 µg/mL (≈ 14.6 µM)
Strep. dysgalactiae SPD1
  MIC: 80 µg/mL (≈ 234 µM)
E. coli ESS
  MIC: 10 µg/mL (≈ 29.2 µM)
[3]
  MIC: 0.5 µg/mL (≈ 1.46 µM)
M. suipneumoniae JF 435
  MIC: 10 µg/mL (≈ 29.2 µM)
M. hyosnoviae ATCC 25591
  MIC: 5 µg/mL (≈ 14.6 µM)
[4]; oral 50 mg/kg
  concentration at 5 min: 5900 ng/mL
  concentration at 10 min: 7700 ng/mL
  concentration at 20 min: 4800 ng/mL
  concentration at 0.5 h: < 3000 ng/mL
  concentration at 1 h: < 3000 ng/mL
  concentration at 2 h: < 3000 ng/mL
  concentration at 4 h: < 3000 ng/mL
[4]; sc, subcutaneous 50 mg/kg
  concentration at 5 min: 16400 ng/mL
  concentration at 10 min: 15300 ng/mL
  concentration at 20 min: 9800 ng/mL
  concentration at 0.5 h: 5000 ng/mL
  concentration at 1 h: < 3000 ng/mL
  concentration at 2 h: < 3000 ng/mL
  concentration at 4 h: < 3000 ng/mL
[5]
  MIC: > 80 µg/mL
[6]
  MIC: > 80 µg/mL
[7]
  MIC: 10 µg/mL (≈ 29.2 µM)
Strep. pyogenes A 64/848
  MIC: 50 µg/mL (≈ 146 µM)
M. bovis NCTC 10131
  MIC: 0.25 µg/mL (≈ 0.73 µM)
S. typhimurium S18
  MIC: > 80 µg/mL
K. aerogenes A
  MIC: > 100 µg/mL
[8]
  MIC: 5 µg/mL (≈ 14.6 µM)

From patent publication US4312874A, “Antibacterial compounds, processes for their preparation and compositions containing them” (Beecham Group Limited, priority 1979, dated 1982)
